Test results as given in EP1053750A1, “Use of proteasome-inhibitor for the induction of programmed cell death (apoptosis)” (Max-Planck-Gesellschaft zur Förderung der Wissenschaften …, priority 1999, dated 2000).
Square brackets hold non-standard residues; d marks the D form. Peptide text beside a SMILES is read from it. * marks the point of attachment. Nva = CCC[C@H](N)C(=O)O; Cbz = O=C(OCc1ccccc1)*

What was measured:
HUE cells [1] = assay: DNA fragmentation assay; assay type: cell-based, human; conditions: 250 µM caspase inhibitor 1 h before 10 µM PSI, 18 h
Procedure: • a. Analysis of PSI-induced DNA fragmentation by agarose gel electrophoresis. […] Neither caspase inhibitor (Ac-YVAD-CHO 250 µM, lane 4; Ac-DEVD-CHO 250 µM, lane 5) nor DMSO (lane 6) induced the characteristic pattern of DNA fragmentation. M1 and M2: DNA size markers (kb). • b. Immunoblot analysis of HUE cell lysates after incubation with PSI. […] Equal loading was controlled by using an antibody directed against GAPDH enzyme.
HUE cells which had been plated at 20000 cells/cm^2 24 hours before the assay, were treated with 250 µM of the caspase inhibitors Ac-YVAD-CHO or Ac-DEVO-CHO (Peptide Institute, Osaka, Japan) or the equivalent volume of dimethylsulfoxide (DMSO) for 1 h prior to additon of the proteasomal inhibitors. Incubation of the cells was continued for a further 18 h and the extent of DNA fragmentation was analyzed as previously described with some minor modifications (Hockenberry et al., Nature 348 (1990), 334 - 336). Briefly, both the floating cells and the adherent cells which were detached by trypsinization, were lysed in a solution containing 0.5% Triton X100, 10 mM EDTA and 10 mM Tris-HCL pH 7.5 for 30 min on ice. To separate the intact chromatin from the oligonucleosomal fragments, the lysate was centrifuged at 13000 g for 10 min at 4°C and the resulting supernatant was sequentially extracted with phenol followed by phenol/chloroform/iso-amylalcohol (25:24:1; v/v/v). Low molecular weight DNA was precipitated by the addition of 0.5 vol 7 M ammonium acetate and 2.5 vol ice-cold ethanol. The precipitate was washed in 75% ethanol, dissolved in TE-buffer, containing RNase A (20 µg/ml; Boehringer Mannheim), incubated for 30 min at 37°C and subjected to electrophoresis on 1.5% agarose gels.

[2] = target: T1, chymotrypic activity of the proteasome (Bos taurus, UniProt Q32KL2); assay: Proteasomal activity in lysates of treated BAE cells, substrate Suc-LLVY-AMC; assay type: cell-based, bovine; conditions: total cell lysates after 15 h incubation of BAECs with 50 µM inhibitor
T1 construct: endogenous in cells; host or cells: primary bovine aortic endothelial cells (BAE), total lysate after 15-16 h treatment of the cells
T1 sequence (Q32KL2 60-263): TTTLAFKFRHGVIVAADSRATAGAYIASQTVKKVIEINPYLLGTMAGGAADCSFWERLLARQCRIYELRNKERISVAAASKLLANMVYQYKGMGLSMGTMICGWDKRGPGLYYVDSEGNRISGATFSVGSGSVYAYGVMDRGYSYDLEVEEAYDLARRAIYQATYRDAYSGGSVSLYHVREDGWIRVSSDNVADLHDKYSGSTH
Procedure: (§1) Lysates prepared from BAE cells incubated for 15 hours with 50 µM of the indicated inhibitors were assayed for their ability to suppress proteasomal function by using Suc-LLVY-AMC as substrate for the chymotryptic activity (a) and Z-LLE-AMC as substrate for the post acidic residue cleaving activity (b). Activities are expressed as the relative fluorescence measured after 45 min of incubation with the substrates and reflect the mean of two independent experiments each performed in duplicate.
(§2) DMSO at a final concentration of 0.1% served as a vehicle-only control. Floating and adherent cells were harvested, lysed by sonication in ice-cold solution of 20 mM Tris-HCI pH 7.5, containing 20% glycerol, centrifuged in a benchtop centrifuge (10 min, 2000 g). […] A total of 15 µg of protein in a volume of 200 µl lysis buffer supplemented with 5 mM CaCl2 was assayed for chymotryptic and peptidyl-glutamyl-hydrolyzing activity in the presence of 10 µM Suc-Leu-Leu-Val-Tyr-AMC (Bachem, Heidelberg, Germany) and 10 µM Z-Leu-Leu-Glu-AMC (Peptide Institute, Osaka, Japan) respectively.

[3] = tested on: chorioallantoic membrane (CAM); assay: Chorioallantoic membrane (CAM) assay; assay type: in vivo, chick embryo
Procedure: All experiments with chick embryos were performed in ovo. After aspiration of 2 ml of eggwhite from the pointed side of the egg, a window was cut into the eggshell on embryonic day 3 or 4 (E3, E4). The eggs were resealed with tape and further incubated until E9. […] Approximately 1 cm^2-pieces of the CAM were then cut out, washed in PBS and fixed in Carnoy's solution. After dehydration and embedding in paraffin, 8 µm sections were cut and stained with an anti-BrdU mouse monoclonal antibody (Boehringer Mannheim, Germany) according to the manufacturer's instructions. Counterstaining of the sections was performed with Gill's hematoxylin (Serva, Heidelberg, Germany). Sections were mounted using Aquamount (Merck, Darmstadt, Germany) and photos were taken with a Zeiss Axiophot microscope. […] Control pellets were prepared with an equal amount of Leupeptin or with DMSO as vehicle, respectively. To aid in the visualization of the vascular system, embryos and CAMs were then injected using pulled glass capillaries with 10% Luconyl Blue (BASF, Ludwigshafen, Germany) in PBS, and photographs were taken using a stereomicroscope with camera adapter.
In eight eggs the windows of the egg shells were enlarged under an operation microscope. After a peripheral incision in the CAM was made, the main artery was incised with a pair of ocular scissors, and a glass capillary (World Precision Instruments, Inc. Germany) pulled to the adequate diameter, was inserted and sealed with a drop of cyanoacrylate (Loctite®). Efflux was enabled by making another incision into a main draining vessel. The vascular system was flushed with up to 5 ml of prewarmed (37 -39°C) physiological saline (0.9% NaCI) under mechanically controlled pressure. […] After complete polymerization of the casting solution, the membranes were dissected and macerated in a solution of 5% potassium hydroxide (Fluka, Neu-Ulm, Germany) at 40°C for 1 - 2 days. The resulting corrosion casts of all specimens were freeze dried, mounted and sputter coated. Examination of the microvascular corrosion casts were carried out with a Stereoscan Mk-250 scanning electron microscope (Cambridge, England). Alternatively, in situ fixed CAM segments were cut out, processed for semi-thin sectioning and stained with methylene blue and Azur II. Selected specimens were trimmed for ultrathin sectioning, and counterstained with uranyl acetate and lead citrate.

[4] = tested on: subconfluent primary BAE cells; assay: Apoptotic morphology (phase contrast, Hoechst 33342), BAE cells; assay type: cell-based, bovine; conditions: for morphological changes associated with programmed cell death: subconfluent BAE cells, 50 µM for 15 - 24 h, or 10 µM after 48 hours
HUE cells [5] = assay: Viability assay (MIT assay), HUE cells; assay type: cell-based, human; conditions: for EC50: Homo sapiens, 48 h, 48 h incubation
MDCK epithelial cells = assay: Viability assay (MIT assay), MDCK cells; assay type: cell-based, canine; conditions: for EC50: Canis lupus familiaris, 48 h, 48 h incubation
Procedure: The indicated values are expressed as the percentage of absorbance at 570 nm relative to the absorbance obtained by DMSO treated (control) cells.
Madin Darby canine kidney epithelial cells (MDCK; ATCC CLL-34) were grown in Dulbecco's Modified Eagle's Medium (DMEM) containing 10% FCS, penicillin and streptomycin.
Briefly, the cells were plated either at 3000 cells/well (low density) or 30000 cells/well (high density) onto 96 well plates and grown over night. […] The formazan cystals generated were subsequently dissolved in DMSO and absorption measured at 570 - 650 nm.

[6] = target: T2, peptidyl-glutamyl hydrolyzing activity of the proteasome (Bos taurus, UniProt Q3MHN0); assay: Proteasomal activity in lysates of treated BAE cells, substrate Z-LLE-AMC; assay type: cell-based, bovine; conditions: total cell lysates after 15 h incubation of BAECs with 50 µM inhibitor
T2 construct: endogenous in cells; host or cells: primary bovine aortic endothelial cells (BAE), total lysate after 15-16 h treatment of the cells
T2 sequence (Q3MHN0 1-239): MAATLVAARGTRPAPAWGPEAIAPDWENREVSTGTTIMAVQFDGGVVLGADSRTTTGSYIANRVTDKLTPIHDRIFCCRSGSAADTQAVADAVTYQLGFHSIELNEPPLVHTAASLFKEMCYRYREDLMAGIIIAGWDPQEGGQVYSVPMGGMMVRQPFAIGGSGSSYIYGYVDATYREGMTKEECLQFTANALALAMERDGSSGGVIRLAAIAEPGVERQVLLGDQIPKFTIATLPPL
Procedure: as §1, §2

BAE cells = assay: Viability assay (MIT assay), BAE cells; assay type: cell-based, bovine; conditions: for EC50: Bos taurus
calpain = conditions: cited from earlier work
cathepsin B = cathepsin B (Homo sapiens, UniProt P07858); conditions: cited from earlier work
[7] = EC50 confluent versus subconfluent, 2880 min
[8] = sub (low density, subconfluent)

Compound: CC(=O)N[C@@H](CC(=O)O)C(=O)N[C@@H](CCC(=O)O)C(=O)N[C@H](C(=O)N[C@H](C=O)CC(=O)O)C(C)C [Ac-DEVD-CHO]
- blocking of PSI-induced morphological changes and DNA fragmentation (HUE cells [1]): blocked

Compound: CC(C)C[C@H](NC(=O)[C@H]1O[C@@H]1C(=O)O)C(=O)NCCCCN=C(N)N [E64]
- cleavage of Suc-Leu-Leu-Val-Tyr-AMC [2]: not

Compound: CC(=O)N[C@@H](CC(C)C)C(=O)N[C@@H](CC(C)C)C(=O)N[C@H](C=O)CCCNC(=N)N [Leupeptin]
- cleavage of Suc-Leu-Leu-Val-Tyr-AMC [2]: not
- %CAMs with non-perfused areas ([3]; 3.1 µg/disc, methylcellulose disc on CAM for 48 h, Luconyl Blue injection, positive/total CAMs in parenthesis): 0 (0/26) %
- vascular patterning or perfusion efficacy in the CAM ([3]; same amount as PSI (3.1 µg/disc)): did not elicit any significant changes

Compound: CC(C)C[C@@H](C=O)NC(=O)[C@H](CC(C)C)NC(=O)[C@H](CC(C)C)NC(=O)OCc1ccccc1 [LLL] (Cbz-Leu-Leu-Leu-aldehyde)
- morphological changes associated with programmed cell death [4]: had the same effect

Compound: CCC[C@@H](C=O)NC(=O)[C@H](CC(C)C)NC(=O)[C@H](CC(C)C)NC(=O)OCc1ccccc1 [LLnV] (Cbz-Leu-Leu-[Nva]-aldehyde)
- x difference (HUE cells [5]; [7]): 8.1 fold
- EC50 (HUE cells [5]; con (grown to confluency)): 2500 nM
- EC50 (HUE cells [5]; [8]): 310 nM
- EC50 (MDCK epithelial cells; con (confluent)): 2950 nM
- EC50 (MDCK epithelial cells; [8]): 196 nM
- x difference (MDCK epithelial cells; [7]): 15.1 fold
- total cellular peptidyl-glutamyl hydrolyzing activity (Z-Leu-Leu-Glu-AMC) [6]: similarly reduced
- morphological changes associated with programmed cell death [4]: had the same effect
- cleavage of Suc-Leu-Leu-Val-Tyr-AMC [2]: clearly reduced
- x difference (BAE cells; BAE, EC50 confluent versus subconfluent, 2880 min): 6.8 fold
- EC50 (BAE cells; 96 h, BAE cells seeded at high density, grown to confluency for 4 days): 2720 nM
- EC50 (BAE cells; BAE, con (grown to confluency for 4 days), 48 h incubation): 2720 nM
- EC50 (BAE cells; BAE, sub (low density, subconfluent), 48 h incubation, viability reduced to 50% of DMSO control): 402 nM

Compound: CC(=O)N[C@@H](Cc1ccc(O)cc1)C(=O)N[C@H](C(=O)N[C@@H](C)C(=O)N[C@H](C=O)CC(=O)O)C(C)C [Ac-YVAD-CHO]
- blocking of PSI-induced morphological changes and DNA fragmentation (HUE cells [1]): unable to inhibit the action of PSI

Compound: CSCC[C@@H](C=O)NC(=O)[C@H](CC(C)C)NC(=O)[C@H](CC(C)C)NC(C)=O [LLnM] (Ac-Leu-Leu-Met-aldehyde)
- Ki (calpain): 9 nM
- changes in cellular morphology or viability ([4]; cultured BAE cells): did not induce any changes
- cleavage of Suc-Leu-Leu-Val-Tyr-AMC [2]: not
- Ki (cathepsin B): 12 nM
